Activity calls are given as the source filed them.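 The calls were made as follows: active = IC50 of 15 µM or lower, and residual activity at the IC50 concentration no higher than 60%; inactive = the rest.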

The experiment addresses Ubiquitin carboxyl-terminal hydrolase BAP1 (Homo sapiens) (UniProt Q92560). Briefly: BAP1 deubiquitinase inhibition, substrate comparison – biochemical, Ub-AMC versus Ub-rhodamine substrates, dose response (AID 1068). The note with it: recombinant BAP1, Ub-rhodamine hydrolysis fluorescence.
[1] abbreviates: measured here: Ub-AMC substrate assay.

Chain of Ubiquitin carboxyl-terminal hydrolase BAP1 (Homo sapiens) (Q92560 whole entry, looked up): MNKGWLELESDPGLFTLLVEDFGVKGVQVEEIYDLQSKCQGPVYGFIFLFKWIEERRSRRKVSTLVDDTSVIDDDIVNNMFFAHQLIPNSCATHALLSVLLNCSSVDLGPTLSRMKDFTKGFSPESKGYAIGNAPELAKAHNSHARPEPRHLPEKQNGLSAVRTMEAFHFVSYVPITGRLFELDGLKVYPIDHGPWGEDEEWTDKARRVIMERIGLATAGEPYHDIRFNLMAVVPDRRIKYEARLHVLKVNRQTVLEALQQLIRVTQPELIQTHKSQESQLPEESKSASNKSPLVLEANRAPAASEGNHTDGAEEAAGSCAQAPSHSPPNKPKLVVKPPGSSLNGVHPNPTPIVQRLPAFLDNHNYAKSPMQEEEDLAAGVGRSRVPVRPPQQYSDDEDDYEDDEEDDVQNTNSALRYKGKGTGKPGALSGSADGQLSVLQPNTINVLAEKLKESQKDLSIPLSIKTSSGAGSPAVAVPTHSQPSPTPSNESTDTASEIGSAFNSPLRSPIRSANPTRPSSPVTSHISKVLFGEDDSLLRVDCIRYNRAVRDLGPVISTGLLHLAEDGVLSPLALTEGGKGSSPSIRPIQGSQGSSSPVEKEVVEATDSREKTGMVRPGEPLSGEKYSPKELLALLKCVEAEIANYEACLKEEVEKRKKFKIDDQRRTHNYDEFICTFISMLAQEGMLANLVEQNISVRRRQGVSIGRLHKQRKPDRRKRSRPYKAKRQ

Turning to `COc1ccccc1NC(=O)c1ccccc1-c1nc(-c2ccc(Cl)cc2)no1`, the IC50 result is “inactive”. The IC50 under setting [1] was 40.1 µM.
The matching figures for `COc1cc(-c2nnc(SCC(=O)Nc3sc(C)c(-c4ccc(F)cc4)c3C#N)o2)cc(OC)c1OC`: “inactive” and 39.6 µM.
The matching figures for `N#Cc1c(NC(=O)CSc2nnc(-c3ccc(Cl)cc3)o2)sc2c1CCCC2`: “inactive” and greater than 100 µM.
`O=C(O)c1ccccc1-c1nc(-c2cccc(Cl)c2)no1`: the IC50 was > 100 µM (inactive). Besides, under setting [1], the IC50 was 58.8 µM.
Regarding `N#Cc1c(NC(=O)CSc2nnc(-c3ccc(F)cc3)o2)sc2c1CCCC2`, the IC50 entry was “inactive”. Under setting [1], the IC50 amounted to 41.7 µM.
The matching figures for `Cc1sc(NC(=O)CSc2nnc(-c3ccc(Cl)cc3)o2)c(C#N)c1-c1ccc(F)cc1`: 5.51 µM and greater than 100 µM.
For `Cc1ccc(-c2c(C)sc(NC(=O)CSc3nnc(-c4ccc(Cl)cc4)o3)c2C#N)cc1C`, the IC50 was 13.5 µM. Further, the IC50 under setting [1] was 32.6 µM.
On to `Cc1cccc2cc(C(c3nn[nH]n3)N3CCN(C(=O)OC(C)(C)C)CC3)c(=O)[nH]c12` (stereo not drawn), for which the IC50 is > 100 µM (inactive). For the same compound, under setting [1], the IC50 turned out to be 38.9 µM.
For `Cc1sc(NC(=O)CSc2nnc(-c3ccccc3)o2)c(C#N)c1C`, the IC50 result is “inactive”. Also, under setting [1], the IC50 was 47.8 µM.
For the compound `Cc1cccc2cc(C(c3nnnn3C(C)(C)C)N3CCN(C(=O)c4ccco4)CC3)c(=O)[nH]c12` (stereo not drawn), the IC50 is < 0.78 µM (inactive). Besides, the IC50 under setting [1] is 55.7 µM.
Consider `O=C(Nc1cccc(O)c1)c1ccccc1-c1nc(-c2cccc(Cl)c2)no1`, for which the IC50 entry is “inactive”. For the same compound, under setting [1], the IC50 was 27.1 µM.
The matching figures for `Cc1cccc2cc(C(c3nnnn3C(C)(C)C)N3CCNCC3)c(=O)[nH]c12` (stereo not drawn): “inactive” and greater than 100 µM.
The matching figures for `COc1cccc(NC(=O)c2ccccc2-c2nc(-c3cccc(Cl)c3)no2)c1`: “inactive” and 37.5 µM.
With `CCc1cc(=O)[nH]c(SCC(=O)Nc2ccc(C(=O)OC)cc2)n1`, the outcome was inactive. In addition, the half-maximal inhibitory concentration (IC50) under setting [1] is greater than 100 µM.
For the compound `O=C(O)c1ccccc1-c1nc(-c2ccc(Cl)cc2)no1`, the IC50 result was “inactive”. Further, the IC50 under setting [1] turned out to be 1.31 µM.
As for `Cc1sc(NC(=O)CSc2nc3ncnc(N)c3[nH]2)c(C#N)c1C`, the result was inactive. For the same compound, the IC50 under setting [1] is greater than 100 µM.
The matching figures for `CCc1ccc(NC(=O)CSc2nc(C)cc(=O)[nH]2)cc1`: “inactive” and 5.62 µM.
Regarding `Cc1cccc2cc(C(C#N)N3CCNCC3)c(=O)[nH]c12` (stereo not drawn), the IC50 result is “inactive”. The IC50 under setting [1] was determined as 1.55 µM.
For the compound `Cc1oc(NC(=O)CSc2n[nH]c(-c3ccc(F)cc3)n2)c(C#N)c1C`, the IC50 was > 100 µM (inactive). The IC50 under setting [1] turned out to be 46.5 µM.
For `CCCc1cc(=O)[nH]c(SCC(=O)Nc2ccc(C(=O)OC)cc2)n1`, the outcome was inactive. Moreover, the IC50 under setting [1] was greater than 100 µM.
For `O=C(NCc1ccco1)c1cc2nc(-c3ccc4c(c3)OCO4)cc(C(F)(F)F)n2n1`, the IC50 entry is “inactive”. Further, under setting [1], the IC50 is greater than 100 µM.
Regarding `Cc1sc(NC(=O)CSc2nnc(-c3ccccc3)o2)c(C#N)c1-c1ccc(F)cc1`, the IC50 was 12.5 µM. Further, the IC50 under setting [1] was 32.1 µM.
The matching figures for `COc1cccc(NC(=O)c2ccccc2-c2nc(-c3ccc(Cl)cc3)no2)c1`: “inactive” and 39.9 µM.
Consider `Cc1cccc2cc(C(C#N)N3CCN(C(=O)OC(C)(C)C)CC3)c(=O)[nH]c12` (stereo not drawn), for which the IC50 entry was “inactive”. Besides, the IC50 under setting [1] was greater than 100 µM.
For `COC(=O)c1ccc(NC(=O)CSc2nc(C)cc(=O)[nH]2)cc1`, the result was inactive. Moreover, under setting [1], the IC50 was greater than 100 µM.
Regarding `Cc1ccc(-c2c(C)sc(NC(=O)CSc3nnc(-c4ccc(F)cc4)o3)c2C#N)cc1C`, the IC50 is 10 µM. Besides, the IC50 under setting [1] worked out at 37 µM.
The matching figures for `Cc1sc(NC(=O)CSc2nnc(-c3ccc(F)cc3)o2)c(C#N)c1C`: “inactive” and 99.7 µM.
On to `Cc1sc(NC(=O)CSc2nnc(-c3ccc(Cl)cc3)o2)c(C#N)c1C`, for which the IC50 was 9.54 µM. Further, the IC50 under setting [1] came to 37.4 µM.
The matching figures for `Cc1sc(NC(=O)CSc2n[nH]c(-c3ccc(O)cc3)n2)c(C#N)c1-c1ccc(F)cc1`: 9.11 µM and 15.3 µM.
For the compound `O=C(NCc1ccccn1)c1cc2nc(-c3ccc4c(c3)OCO4)cc(C(F)(F)F)n2n1`, the result was inactive. Besides, the IC50 under setting [1] was greater than 100 µM.
For the compound `Cc1cccc2cc(C(c3nnnn3C(C)(C)C)N3CCN(C(=O)OC(C)(C)C)CC3)c(=O)[nH]c12` (stereo not drawn), the IC50 is > 100 µM (inactive). Besides, the IC50 under setting [1] is greater than 100 µM.
`COc1cc(-c2nnc(SCC(=O)Nc3sc(C)c(C)c3C#N)o2)cc(OC)c1OC`: the outcome was inactive. In addition, the IC50 under setting [1] stood at 2.32 µM.
In the case of `O=C(NCc1cccs1)c1cc2nc(-c3ccc4c(c3)OCO4)cc(C(F)(F)F)n2n1`, the IC50 result was “inactive”. Moreover, the IC50 under setting [1] was found to be 44.7 µM.
Regarding `Cc1ccc(-c2c(C)sc(NC(=O)CSc3nnc(-c4ccccc4)o3)c2C#N)cc1C`, the IC50 result is “inactive”. Also, the IC50 under setting [1] is 69.8 µM.

The record behind these values is PubChem BioAssay AID1068 (Emory University Molecular Libraries Screening Center, 2008).
